By ED50 is commonly meant the dose that gives a 50% effect, or the effect in half of the subjects.

Here are results for eleven molecules from patent publication US5463125A, “Phenyl alcohol amides having anticonvulsant activity” (priority 1993, dated 1995).

SMILES strings stand for the structures. Where two headings read alike, the source gives them in different places.

The nature of data set [1]: Bicuculline (BIC) anticonvulsant test. Type of data set: in vivo, mice (male albino, NMR-1 strain). Conditions: Mus musculus, ip, mice; BIC s.c.; abolition of tonic components. How it is done: (§1) Male albino mice (NMR-1 strain) weighing 28-32 gm were used in a mouse anticonvulsant and rotarod test. Each of the test compounds (n=0, 1 and 2) were dissolved in a 10% polyethylene glycol-400 saline solution and were administered intraperitoneally (i.p.). Convulsant agents were dissolved in saline solution, buffered with 15 mmol/l Tris-HCl, pH 7.4, except for bicuculline, which was first dissolved in 0.025N HCl, adjusting to pH 4 with a 0.15 mol/l citrate-phosphate buffer. The convulsant dose inducing seizures in 97% of mice (CD97) was determined and used in the pharmacological test. CD97 values obtained were: 85 for pentetrazol (PTZ), 15 for 4-aminopyridine (4-AP), 3.3 for bicuculline (BIC), 20 for thiosemicarbazide (TSC), and 2.0 for strychnine (STR) expressed as mg kg^-1. The time of peak drug effect was evaluated for each anticonvulsant before determining the dose-response curves. Convulsant agents were either injected subcutaneously (s.c. into the back of the neck (BIC, picrotoxin (PIC) and PTZ) or administered i.p. (4-AP, TSC and STR).
(§2) Abolition of the tonic components of the seizure was the end point, except for PTZ, where suppression of seizures of at least 5 seconds duration was considered the end point. […] The ED50, TD50 and 95% confidence intervals were calculated by the method of Litchfield and Wilcoxon. See Litchfield et al., J. Pharmacol. Exp. Ther. 96, 99 (1949).
(§3) (PTZ), 4aminopyridine (4AP), bicuculline (BIC), thiosemicarbazide (TSC),

The nature of data set [2]: Strychnine (STR) anticonvulsant test. In kind it is in vivo, mice (male albino, NMR-1 strain). Conditions: for ED50: Mus musculus, ip, read-out: ED50 STR. How it is done:
as §1, §2
(§4) strychnine (STR) and picrotoxin (PIC).

Data set [3] is described as follows: Picrotoxin (PIC) anticonvulsant test. Type of data set: in vivo, mice (male albino, NMR-1 strain). How it is done: as §1, §2, §4
The nature of data set [4]: Pentetrazol (PTZ) anticonvulsant test. As to conditions: Mus musculus, ip, 10 min, mice; PTZ s.c.; suppression of seizures of at least 5 s; for compound 1 PTZ given 10 min postdosing (footnote d). In kind it is in vivo, mice (male albino, NMR-1 strain). How it is done:
as §1, §2
^a) Seizures provoked by: maximal electroshock (MES), pentetrazol
as §3

A short description of data set [5]: Thiosemicarbazide (TSC) anticonvulsant test. Type of data set: in vivo, mice (male albino, NMR-1 strain). As to conditions: Mus musculus, ip, 10 min, mice, abolition of tonic components, for compound 1 TSC given 10 min postdosing. How it is done: as §1, §2, §3
Data set [6] can be described thus: 4-aminopyridine (4-AP) anticonvulsant test. Type of data set: in vivo, mice (male albino, NMR-1 strain). Conditions: Mus musculus, ip, mice; 4-AP i.p.; abolition of tonic components. How it is done:
as §1, §2, §3

Data set [7] in a line: Maximal electroshock test (MES). Type of data set: in vivo, mice (male albino, NMR-1 strain). As to conditions: Mus musculus, ip, mice, at time of peak drug effect; 95% confidence interval. How it is done: as §1, §2
In a maximal electroshock test, maximal seizures were induced by application of an electrical current across the brain via carclip electrodes. The stimulus parameters for mice were 30-35 mA, A.C. in pulses of 60 Hz for 200 ms. Each compound was tested at the time of peak drug effect. The dose at which the hind limb tonic seizure was blocked in 50% of the animals (ED50 value) was determined by probit analysis.
as §3

The nature of data set [8]: Solubility. Type of data set: physicochemical. How it is done:
The solid formed was separated by means of filtration and washed with cold benzene. This solid is the DL-HEPA that crystallizes from benzene. […]. […] Fusion point was 91°-92° C. Yield was 20%.
While still warm, the mixture was carefully neutralized with a 5% sulfuric acid solution using litmus paper. Once neutralized, the mixture was extracted with 50 ml volumes of ethyl ether. The ether was distilled in a rotating evaporator, and the white solid residue was the DL-HEPP that crystallizes with water. […] Its fusion point is 101°-102° C.

Data set [9] can be described thus: Accelerating rotarod ataxia test. In kind it is in vivo, mice (male albino, NMR-1 strain). How it is done: as §1
In a rotarod test, separate groups of mice were trained to stay on an accelerating rotarod that rotated initially at 2.16 rpm, then increased in speed to reach 22.5 rpm in 4 min. The drum diameter was 2.8 cm. Trained animals were dosed with the test compound or drug vehicle and were tested at the time of peak drug effect to measure the effects of the drug on motor performance. The dose at which 50% of the animals fell off the rotarod (TD50 value) was determined by probit analysis.
^b) Accelerating rotarod.

For data set [10] the following is noted: data obtained from NIH, ADD program; cited from earlier work.
The conditions of data set [11]: mice; cited from earlier work.
For data set [12] the following is noted: constant speed rotarod; data obtained from NIH, ADD program; cited from earlier work. On the technique in general: The rotarod test checks motor coordination on a turning rod.
For data set [13] the following is noted: cats; cited from earlier work.
For data set [14] the following is noted: in vivo; cited from earlier work.
For data set [15] the following is noted: data obtained from NIH, ADD program; cited from earlier work. The source holds these as a separate data set.
The conditions of data set [16]: patients having grand mal seizures; cited from earlier work.
Data set [17] is described as follows: Convulsant dose inducing seizures in 97% of mice (CD97). Type of data set: in vivo, mice (male albino, NMR-1 strain). How it is done:
as §1

Data set [18] can be described thus: Preliminary test against convulsions provoked by pentylenetetrazol. Type of data set: in vivo. Conditions: 100 mg kg^-1, i.p. The source says: Phenyl alcohol amide derivatives of the foregoing compounds wherein n=0 to 2 may be synthesized by substitution of the ethyl group at the center of chirality by either a methyl or phenyl group. […] Substitution of ethyl by phenyl in the n=0 and n=1 produces a loss in anticonvulsant activity.

The mark [19] stands for this setting: administered i.p. (4-AP, TSC, STR).

Turning to `CCC(O)(C(N)=O)c1ccccc1` (racemic) [Compound 1, (±)-2-hydroxy-2-phenylbutyramide], the median effective dose (ED50) in data set [1] came out at 29 mg/kg; in data set [2], 56 mg/kg; in data set [4] it was 67 mg/kg; in data set [5], 47 mg/kg; in [6] it was 24 mg/kg; in data set [7], 126 mg/kg. Besides, in data set [2] (comparison in words), the “strychnine activity relative to the n=2 compound” value is reported as “more than twice that of the n=2 compound”. In addition, the PIC effect entry in data set [3] (at 80 mgkg^-1) is “No effects”. In addition, the “solubility (insoluble in)” value in [8] is given as “insoluble in cold benzene or water”. In data set [8], the “solubility (soluble in)” value is “soluble in ethyl alcohol, chloroform and hot benzene”. Moreover, in [9] (accelerating rotarod, i.p., mice, compound 2 tested 30 min postdosing), the TD50 rotarod ataxia was 132 mg/kg.

Take `CCC(O)(CC(N)=O)c1ccccc1` (racemic) [Compound 2, (±)-3-hydroxy-3-phenylpentamide]: the ED50 in data set [1] was found to be 38 mg/kg; in [4], 63 mg/kg; in data set [5], 43 mg/kg; in data set [6], 19 mg/kg; in [7], 144 mg/kg. In addition, the “Maximum protection, STR” value in data set [2] (at 100 mgkg^-1, STR administered 15 min postdosing) amounted to 30%. In addition, the “Maximum protection, PIC” value in [3] (at 130 mgkg^-1, PIC administered 15 min postdosing) was determined as 37%. The picrotoxin test activity entry in data set [3] (dose of 130 mg kg^-1) is “active”. Moreover, the “solubility (insoluble in)” value in [8] is given as “insoluble in cold water”. The “solubility (soluble in)” value in data set [8] is “soluble in ethyl alcohol, benzene and hot water”. For the same molecule, the “neurotoxicity in rotarod ataxia test” value in data set [9] (in words) is “unusually low neurotoxicity”. For the same molecule, in data set [9] (mouse, in vivo, ip, accelerating rotarod, i.p., mice, compound 2 tested 30 min postdosing, read-out: TD50 rotarod ataxia), the TD50 worked out at 214 mg/kg.

For the molecule `CCC(O)(CCC(N)=O)c1ccccc1` (racemic) [Compound 3, (±)-4-hydroxy-4-phenylhexanamide], the ED50 came out at 30 mg/kg in data set [1]; 106 mg/kg in data set [2]; 63 mg/kg in data set [4]; 73 mg/kg in [5]; 29 mg/kg in data set [6]; 148 mg/kg in data set [7]. The PIC effect result in data set [3] (at 120 mgkg^-1) is given as “No effects”. Further, the “ED50 MES” value in data set [10] was 147 mg/kg. Moreover, the “protection against seizures provoked by bicuculline” value in [11] was “protects mice against seizures”. In data set [11], the “protection against seizures provoked by maximal electroshock” value is “protects mice against seizures”. For the same molecule, the “protection against seizures provoked by pentetrazol” value in data set [11] was “protects mice against seizures”. The TD50 rotarod ataxia in data set [12] was 168 mg/kg. Besides, in data set [13], the “protection against hippocampal kindling” value is “protects”. In addition, the “profile of anticonvulsant activity” value in data set [14] is “broad profile of anticonvulsant activity”. Also, the “ED50 PTZ” value in data set [15] is 58 mg/kg. In addition, the clinical antiepileptic action entry in data set [16] is on record as “potent clinical antiepileptic action”. The molecule further gave a TD50 in [9] (rotarod ataxia test) of 111.

On to `Nc1ccncc1` [4-aminopyridine], for which the CD97 in data set [17] (setting [19]) was 15 mg/kg.

In data set [17] (administered s.c. (PTZ, BIC)), `CN1CCc2cc3c(cc2[C@H]1[C@@H]1OC(=O)c2c1ccc1c2OCO1)OCO3` [bicuculline] registered a CD97 of 3.3 mg/kg.

As for `CC(O)(CC(N)=O)c1ccccc1` (stereo not drawn) [methyl group in the n=1 compound], the “anticonvulsant activity against pentylenetetrazol convulsions” value in data set [18] is “suppresses anticonvulsant activity”.

As to `CC(O)(C(N)=O)c1ccccc1` (stereo not drawn) [n=0 derivative], in data set [18], the “anticonvulsant activity against pentylenetetrazol convulsions” value is on record as “retains activity”.

Take `CC(O)(CCC(N)=O)c1ccccc1` (stereo not drawn) [n=2 derivative]: the “anticonvulsant activity against pentylenetetrazol convulsions” value in [18] was “conserves half-potency”.

`C1CCc2nnnn2CC1` [pentetrazol] yielded a CD97 in data set [17] (administered s.c. (PTZ, BIC)) of 85 mg/kg.

With `O=C1C[C@@H]2OCC=C3CN4CC[C@]56c7ccccc7N1[C@H]5[C@H]2[C@H]3C[C@H]46` [strychnine], the CD97 in data set [17] (setting [19]) came to 2.0 mg/kg.

Molecule `NNC(N)=S` [thiosemicarbazide] returned a CD97 in data set [17] (setting [19]) of 20 mg/kg.
